Test results published in US20220370440A1 (Lead Discovery Center GmbH, priority 2018, published 2022).

Tests used:
H1975 = H1975 CellTiter-Glo; assay type: cell-based; details: Homo sapiens, NCI-H1975; 72 h compound incubation; read-out: H1975 CTG IC50
Protocol: (§1) 2. Measurement of Cellular Activity
(§2) The CellTiter-Glo Luminescent Cell Viability Assay (Promega) is a homogeneous method of determining the number of viable cells in culture. It is based on quantification of ATP, indicating the presence of metabolically active cells. Cells are seeded on day 1 at cell numbers that assure assay linearity and optimal signal intensity. After incubation for 24 h in humidified chambers at 37° C. and 5% CO2, compounds in DMSO are added at different concentrations. Cells are further incubated for 72 h at 37° C. and 5% CO2. Cells treated with the compound vehicle DMSO are used as positive controls and cells treated with 10 μM Staurosporine serve as negative controls. At day 5 the CellTiter Glo Reagent is prepared according to the instructions of the kit (Promega Inc.): Reagent is mixed 1:1 with cell culture medium. Thereon, mixture and assay plates are equilibrated at room temperature for 20 min. Equal volumes of the reagent-medium-mixture is added to the volume of culture medium present in each well. The plates are mixed at ˜200 rpm for 2 minutes on an orbital shaker. The microplates are then incubated at room temperature for 10 minutes for stabilization of the luminescent signal. Following incubation the luminescence is recorded on a Victor microplate reader (Perkin Elmer) using a 200 ms integration time. The data is then analyzed with Excel using the XLFIT Plugin (dose response Fit 205) for IC50-determination. As quality control the Z′-factor is calculated from 16 positive and negative control values. Only assay results showing a Z′-factor ≥0.5 are used for further analysis.
(§3) Inhibition is indicated as […] [nM] (“−”=not measured). Compounds having an activity designated as “A” provided an IC50≤100 nM; compounds having an activity designated as “B” provided an 100 nM<IC50≤500 nM; compounds having an activity designated as “C” provided an 500 nM<IC50≤1000 nM; compounds having an activity designated as “D” provided an 1000 nM<IC50≤100000 nM; and compounds having an activity designated as “E” provided an IC50>10000 nM.

HER2 INS YVMA = biological target: T1, HER2 INS YVMA (Homo sapiens, UniProt P04626, INS775YVMA); experiment: Lance Kinase Activity Assay, HER2 INS YVMA (Her2 Exon 20 INSYVMA Lance); assay type: biochemical; details: biochemical Lance assay
T1 construct: purchased DPF
T1 sequence (P04626 with tags, fused parts or gaps INS775YVMA): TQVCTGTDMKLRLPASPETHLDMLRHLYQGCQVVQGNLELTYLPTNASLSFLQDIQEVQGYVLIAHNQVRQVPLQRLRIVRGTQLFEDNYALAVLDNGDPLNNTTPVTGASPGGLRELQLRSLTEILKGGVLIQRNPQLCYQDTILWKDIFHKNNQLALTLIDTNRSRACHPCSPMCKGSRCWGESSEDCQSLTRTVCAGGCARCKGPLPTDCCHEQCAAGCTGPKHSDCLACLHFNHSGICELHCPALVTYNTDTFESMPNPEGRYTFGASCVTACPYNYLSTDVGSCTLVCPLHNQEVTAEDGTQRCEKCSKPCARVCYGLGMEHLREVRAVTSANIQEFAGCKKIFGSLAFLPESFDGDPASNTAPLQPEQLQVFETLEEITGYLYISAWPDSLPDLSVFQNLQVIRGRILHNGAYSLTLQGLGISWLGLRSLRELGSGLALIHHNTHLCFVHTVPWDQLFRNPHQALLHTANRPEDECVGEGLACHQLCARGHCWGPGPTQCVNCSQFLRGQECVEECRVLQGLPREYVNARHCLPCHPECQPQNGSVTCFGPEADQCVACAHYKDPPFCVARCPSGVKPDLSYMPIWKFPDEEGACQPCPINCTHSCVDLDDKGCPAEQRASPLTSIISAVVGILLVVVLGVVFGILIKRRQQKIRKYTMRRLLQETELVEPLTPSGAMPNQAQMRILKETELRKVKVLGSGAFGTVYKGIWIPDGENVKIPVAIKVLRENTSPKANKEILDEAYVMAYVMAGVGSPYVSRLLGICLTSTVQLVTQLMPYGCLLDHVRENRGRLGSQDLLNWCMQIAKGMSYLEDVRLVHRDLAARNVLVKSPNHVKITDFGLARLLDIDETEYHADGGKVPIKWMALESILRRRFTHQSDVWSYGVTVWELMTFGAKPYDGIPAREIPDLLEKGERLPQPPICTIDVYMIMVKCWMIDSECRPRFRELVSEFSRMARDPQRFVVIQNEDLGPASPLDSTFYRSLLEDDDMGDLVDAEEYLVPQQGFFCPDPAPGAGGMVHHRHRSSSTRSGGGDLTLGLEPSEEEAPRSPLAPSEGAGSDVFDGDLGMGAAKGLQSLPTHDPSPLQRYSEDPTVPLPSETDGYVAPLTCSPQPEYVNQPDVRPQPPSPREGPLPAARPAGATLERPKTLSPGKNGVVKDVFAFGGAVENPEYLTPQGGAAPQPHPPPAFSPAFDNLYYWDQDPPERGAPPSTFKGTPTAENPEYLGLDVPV
Protocol: 1. Measurement of HER2 INS YVMA Kinase Activity
This protocol describes how the Lance Kinase Activity Assay was performed to determine IC50 values of compounds of general formula (I) against HER2 INS YVMA. The principle behind this enzymatic assay is based upon the phosphorylation of the Ulight-peptide substrate. It is detected by using a specific EU-labeled anti-phospho peptide antibody. The binding of the Eu labeled anti-phospho peptide antibody to the phosphorylated ULight labeled peptide gives rise to a FRET-signal.
Binding of an inhibitor to the kinase prevents phosphorylation of the Ulight-substrate, resulting in a loss of FRET. In table 2 is summarized the relevant information for the LANCE assay.
The compounds of general formula (I) summarized in Table 3 were serial diluted from a 10 mM DMSO stock solution 1:3 over 8 steps in a total volume of 20 μl.
For every sample, 8 μl of kinase-substrate mix was transferred into a suitable assay plate (e.g. Corning #3673). Compound was added via pintool transfer (10 nl/well) using a Biomek FX robot (BeckmanCoulter). Reaction was started by addition of 2 μl ATP working solution and mixed using variomag teleshaker (Thermo Fischer Scientific). After 1 h incubation at room temperature the reaction was stopped with 10 μl detection mix containing the Eu-labeled phosphospecific antibody and 10 mM EDTA. After a second incubation period of 1 h at room temperature the FRET signal was measured at 340 nm excitation, 665 nm and 615 nm emission (for the ULight-substrate and Eu-AB, respectively) with an Envision spectrophotometer (Perkin Elmer, Waltham, Mass., USA) with 50 μs delay and 300 μs integration time. IC50 values were determined from the sigmoidal dose response curves with the software Quattro Workflow (Quattro GmbH, Munich, Germany).

[1] = biological target: EGFR Exon 20 INSNPH Ba/F3 (Homo sapiens, UniProt P00533, DUP771-773, cells depend on it); experiment: EGFR Exon 20 INSNPH Ba/F3 CellTiter-Glo; assay type: cell-based; details: CellTiter-Glo, 72 h, read-out: EGFR Exon 20 INSNPH Ba/F3 CTG IC50
EGFR Exon 20 INSNPH Ba/F3, sequence (P00533 with tags, fused parts or gaps DUP771-773): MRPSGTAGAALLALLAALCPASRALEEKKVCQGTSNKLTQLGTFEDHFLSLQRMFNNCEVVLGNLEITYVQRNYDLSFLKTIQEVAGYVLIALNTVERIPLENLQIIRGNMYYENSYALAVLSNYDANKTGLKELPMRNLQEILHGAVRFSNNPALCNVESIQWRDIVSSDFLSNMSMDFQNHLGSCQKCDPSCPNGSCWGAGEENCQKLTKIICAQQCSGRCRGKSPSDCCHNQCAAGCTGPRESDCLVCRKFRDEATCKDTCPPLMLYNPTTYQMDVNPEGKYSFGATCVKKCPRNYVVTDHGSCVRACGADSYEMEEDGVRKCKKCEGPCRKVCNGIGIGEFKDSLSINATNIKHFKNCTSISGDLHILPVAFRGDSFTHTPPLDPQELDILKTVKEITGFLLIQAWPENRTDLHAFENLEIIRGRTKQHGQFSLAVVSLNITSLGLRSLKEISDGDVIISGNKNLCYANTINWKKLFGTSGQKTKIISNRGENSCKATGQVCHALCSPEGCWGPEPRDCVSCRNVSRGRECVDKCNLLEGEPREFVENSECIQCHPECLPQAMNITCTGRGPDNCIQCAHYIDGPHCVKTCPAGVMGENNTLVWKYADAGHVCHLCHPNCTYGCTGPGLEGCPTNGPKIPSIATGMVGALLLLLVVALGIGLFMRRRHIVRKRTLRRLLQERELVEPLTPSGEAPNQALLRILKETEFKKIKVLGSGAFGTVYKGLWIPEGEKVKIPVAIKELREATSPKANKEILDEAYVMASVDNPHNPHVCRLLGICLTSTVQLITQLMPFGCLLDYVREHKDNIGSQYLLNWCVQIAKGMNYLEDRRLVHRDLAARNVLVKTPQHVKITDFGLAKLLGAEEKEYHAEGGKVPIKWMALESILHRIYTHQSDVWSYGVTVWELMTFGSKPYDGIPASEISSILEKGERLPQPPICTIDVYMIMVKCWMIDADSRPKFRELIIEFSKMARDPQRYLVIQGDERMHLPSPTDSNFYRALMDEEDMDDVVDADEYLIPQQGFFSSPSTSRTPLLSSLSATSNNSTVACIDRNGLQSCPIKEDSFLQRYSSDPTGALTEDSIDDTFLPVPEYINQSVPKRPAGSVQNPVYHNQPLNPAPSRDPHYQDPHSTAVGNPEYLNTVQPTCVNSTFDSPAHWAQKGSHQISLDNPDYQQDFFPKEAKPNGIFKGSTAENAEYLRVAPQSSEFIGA
Protocol: as §1, §2
(§4) Inhibition is indicated as IC50 [nM] (“−”=not measured). Compounds having an activity designated as “A” provided an IC50≤100 nM; compounds having an activity designated as “B” provided an 100 nM<IC50≤500 nM; compounds having an activity designated as “C” provided an 500 nM<IC50≤1000 nM; compounds having an activity designated as “D” provided an 1000 nM<IC50≤10000 nM; and compounds having an activity designated as “E” provided an IC50>10000 nM.

A431 = A431 CellTiter-Glo; assay type: cell-based; details: Homo sapiens, A-431; 72 h compound incubation; read-out: A431 CTG IC50
Protocol: as §1, §2, §3

EGFR T790ML858R = EGFR T790ML858R (Homo sapiens, UniProt P00533, L858R/T790M); experiment: EGFR T790ML858R Lance assay; assay type: biochemical
Protocol: as §3

EGFR wt = EGFR wt (Homo sapiens, UniProt P00533); experiment: EGFR wt Lance assay; assay type: biochemical
EGFR wt, sequence (P00533 25-1210): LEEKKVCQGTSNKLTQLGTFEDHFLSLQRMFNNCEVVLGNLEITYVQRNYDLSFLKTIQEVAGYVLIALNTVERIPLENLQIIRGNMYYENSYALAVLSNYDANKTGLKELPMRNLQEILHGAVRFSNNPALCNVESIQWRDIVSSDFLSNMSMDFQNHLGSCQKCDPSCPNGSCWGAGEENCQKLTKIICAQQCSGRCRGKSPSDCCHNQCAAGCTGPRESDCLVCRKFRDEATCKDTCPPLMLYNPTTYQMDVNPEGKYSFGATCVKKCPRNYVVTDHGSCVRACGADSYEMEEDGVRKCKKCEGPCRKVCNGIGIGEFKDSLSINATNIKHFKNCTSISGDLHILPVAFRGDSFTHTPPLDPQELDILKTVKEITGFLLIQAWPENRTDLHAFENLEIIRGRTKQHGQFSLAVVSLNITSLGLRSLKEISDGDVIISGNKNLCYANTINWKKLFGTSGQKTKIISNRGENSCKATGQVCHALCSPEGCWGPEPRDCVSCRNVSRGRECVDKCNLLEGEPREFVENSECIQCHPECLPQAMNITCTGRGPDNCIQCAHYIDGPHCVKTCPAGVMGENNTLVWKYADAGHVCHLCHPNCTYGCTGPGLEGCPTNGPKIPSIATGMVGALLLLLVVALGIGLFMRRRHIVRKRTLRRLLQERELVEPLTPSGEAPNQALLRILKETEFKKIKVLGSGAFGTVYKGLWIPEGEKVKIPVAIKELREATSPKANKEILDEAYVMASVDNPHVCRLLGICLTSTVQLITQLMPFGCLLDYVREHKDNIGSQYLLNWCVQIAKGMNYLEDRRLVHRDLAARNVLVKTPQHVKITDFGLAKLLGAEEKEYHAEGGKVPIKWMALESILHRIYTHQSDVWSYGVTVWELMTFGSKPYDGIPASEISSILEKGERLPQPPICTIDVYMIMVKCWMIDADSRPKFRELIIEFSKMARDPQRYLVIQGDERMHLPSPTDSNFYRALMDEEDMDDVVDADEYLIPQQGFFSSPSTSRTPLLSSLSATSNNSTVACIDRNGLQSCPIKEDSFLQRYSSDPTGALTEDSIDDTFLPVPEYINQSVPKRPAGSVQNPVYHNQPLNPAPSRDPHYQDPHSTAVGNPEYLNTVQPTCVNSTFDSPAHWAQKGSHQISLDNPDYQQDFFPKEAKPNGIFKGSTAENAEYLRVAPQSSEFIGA
Protocol: as §3

[2] = biological target: Her2 Exon 20 INSYVMA Ba/F3 (Homo sapiens, UniProt P04626, DUP772-775, cells depend on it); experiment: Her2 Exon 20 INSYVMA Ba/F3 CellTiter-Glo; assay type: cell-based; details: CellTiter-Glo, 72 h, read-out: Her2 Exon 20 INSYVMA Ba/F3 CTG IC50
Her2 Exon 20 INSYVMA Ba/F3, sequence (P04626 with tags, fused parts or gaps DUP772-775): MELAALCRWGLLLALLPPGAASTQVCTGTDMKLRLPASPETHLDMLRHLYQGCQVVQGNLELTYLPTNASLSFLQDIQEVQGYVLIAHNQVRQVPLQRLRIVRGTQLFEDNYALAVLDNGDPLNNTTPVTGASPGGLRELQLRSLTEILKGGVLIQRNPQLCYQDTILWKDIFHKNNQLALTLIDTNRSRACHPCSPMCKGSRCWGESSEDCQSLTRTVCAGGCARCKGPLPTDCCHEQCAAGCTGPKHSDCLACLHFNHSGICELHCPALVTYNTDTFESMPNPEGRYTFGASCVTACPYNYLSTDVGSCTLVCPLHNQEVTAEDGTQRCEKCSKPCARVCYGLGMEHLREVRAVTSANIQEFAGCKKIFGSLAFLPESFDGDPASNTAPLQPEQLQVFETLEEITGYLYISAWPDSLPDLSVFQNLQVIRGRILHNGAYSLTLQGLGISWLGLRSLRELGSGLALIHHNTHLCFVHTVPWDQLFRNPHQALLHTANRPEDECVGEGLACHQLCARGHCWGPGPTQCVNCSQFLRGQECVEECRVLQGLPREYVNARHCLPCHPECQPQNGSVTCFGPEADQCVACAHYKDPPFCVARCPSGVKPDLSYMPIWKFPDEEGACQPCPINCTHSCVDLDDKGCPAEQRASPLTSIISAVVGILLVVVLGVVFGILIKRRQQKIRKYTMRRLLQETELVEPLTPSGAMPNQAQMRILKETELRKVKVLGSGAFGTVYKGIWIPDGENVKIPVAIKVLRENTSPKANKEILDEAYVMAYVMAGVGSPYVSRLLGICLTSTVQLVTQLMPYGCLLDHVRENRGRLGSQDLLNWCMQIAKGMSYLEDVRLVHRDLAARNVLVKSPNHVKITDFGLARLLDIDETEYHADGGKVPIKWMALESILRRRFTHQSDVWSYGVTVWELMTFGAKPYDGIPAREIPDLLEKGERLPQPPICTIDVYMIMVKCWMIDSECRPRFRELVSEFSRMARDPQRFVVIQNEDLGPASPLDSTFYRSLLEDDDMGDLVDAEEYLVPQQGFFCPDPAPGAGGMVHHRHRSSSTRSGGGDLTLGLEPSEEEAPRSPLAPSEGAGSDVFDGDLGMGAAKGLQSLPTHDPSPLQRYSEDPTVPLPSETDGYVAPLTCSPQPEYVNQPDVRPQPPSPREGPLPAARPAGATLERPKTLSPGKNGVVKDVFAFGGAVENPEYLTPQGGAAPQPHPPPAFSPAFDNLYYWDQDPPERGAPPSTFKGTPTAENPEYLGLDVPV
Protocol: as §1, §2, §4

IC50 (H1975) [µM] | IC50 (HER2 INS YVMA) [µM] | GI50 [1] [µM] | IC50 (A431) [µM] | IC50 (EGFR T790ML858R) [µM] | IC50 (EGFR wt) [µM] | GI50 [2] [µM] | Structure (SMILES)
0.1 to 0.5 | ≤ 0.1 | 0.1 to 0.5 | 1 to 100 | ≤ 0.1 | ≤ 0.1 | 0.1 to 0.5 | C=CC(=O)Nc1cc(-c2c(-c3ccc(C4CCN(C)CC4)cc3)[nH]c3ncc(C(=O)OC(C)C)cc23)ccc1C [Example 149, isoproyl 3-(3-acrylamido-4-methylphenyl)-2-(4-(1-methylpiperidin-4-yl)phenyl)-1H-pyrrolo[2,3-b]pyridine-5-carboxylate 2,2,2-trifluoroacetate]
> 10 | 0.1 to 0.5 | > 10 | > 10 | 0.1 to 0.5 | ≤ 0.1 | > 10 | C=CC(=O)Nc1cc(-c2c(-c3ccc(N4CCN(C)CC4)cc3)[nH]c3ncc(C(=O)NCc4cccc(C(N)=O)c4)cc23)ccc1C [Example 133, 3-(3-acrylamido-4-methylphenyl)-N-(3-carbamoylbenzyl)-2-(4-(4-methylpiperazin-1-yl)phenyl)-1H-pyrrolo[2,3-b]pyridine-5-carboxamide]
0.1 to 0.5 | 1 to 10 | 1 to 10 | 1 to 100 | 0.1 to 0.5 | ≤ 0.1 | 1 to 10 | C=CC(=O)Nc1cc(-c2c(-c3ccc(N4CCN(C)CC4)cc3)[nH]c3ncc(C(=O)NCc4nc5ccccc5[nH]4)cc23)ccc1C [Example 125, N-((1H-benzo[d]imidazol-2-yl)methyl)-3-(3-acrylamido-4-methylphenyl)-2-(4-(4-methylpiperazin-1-yl)phenyl)-1H-pyrrolo[2,3-b]pyridine-5-carboxamide]
1 to 100 | ≤ 0.1 | 0.1 to 0.5 | 1 to 100 | ≤ 0.1 | ≤ 0.1 | 0.1 to 0.5 | C=CC(=O)Nc1cc(-c2c(-c3ccc(N4CCN(C)CC4)cc3)[nH]c3ncc(NC(=O)C(C)C)cc23)ccc1C [Example 200, N-(5-(5-isobutyramido-2-(4-(4-methylpiperazin-1-yl)phenyl)-1H-pyrrolo[2,3-b]pyridin-3-yl)-2-methylphenyl)acrylamide 2,2,2-trifluoroacetate]
0.5 to 1 | ≤ 0.1 | 0.1 to 0.5 | 1 to 100 | ≤ 0.1 | ≤ 0.1 | 1 to 10 | C=CC(=O)Nc1cc(-c2c(-c3ccc(N4CCN(C)CC4)cc3)[nH]c3ncc(CC(=O)OC4COC4)cc23)ccc1C [Example 197, oxetan-3-yl 2-(3-(3-acrylamido-4-methylphenyl)-2-(4-(4-methylpiperazin-1-yl)phenyl)-1H-pyrrolo[2,3-b]pyridin-5-yl)acetate]
0.1 to 0.5 | ≤ 0.1 | 0.1 to 0.5 | 1 to 100 | ≤ 0.1 | ≤ 0.1 | 0.1 to 0.5 | C=CC(=O)N1CCOc2ccc(-c3c(-c4ccc(CN(C)C)cc4)[nH]c4nccc(Cl)c34)cc21 [Example 102, 1-(6-(4-chloro-2-(4-((dimethylamino)methyl)phenyl)-1H-pyrrolo[2,3-b]pyridin-3-yl)-2H-benzo[b][1,4]oxazin-4(3H)-yl)prop-2-en-1-one]
1 to 100 | > 10 | 1 to 10 | 1 to 100 | 1 to 100 | 0.5 to 1 | 1 to 10 | C=CC(=O)Nc1cc(-c2c(-c3cnc(N4CCOCC4)nc3)[nH]c3ncc(C(=O)OC(C)C)cc23)ccc1C [Example 173, isopropyl 3-(3-acrylamido-4-methylphenyl)-2-(2-morpholinopyrimidin-5-yl)-1H-pyrrolo[2,3-b]pyridine-5-carboxylate]
1 to 100 | ≤ 0.1 | 1 to 10 | 1 to 100 | ≤ 0.1 | ≤ 0.1 | 1 to 10 | C=CC(=O)Nc1cc(-c2c(-c3ccc(N4CCN(C)CC4)cc3)[nH]c3ncc(NC(C)=O)cc23)ccc1C [Example 201, N-(5-(5-acetamido-2-(4-(4-methylpiperazin-1-yl)phenyl)-1H-pyrrolo[2,3-b]pyridin-3-yl)-2-methylphenyl)acrylamide]
0.5 to 1 | ≤ 0.1 | 0.5 to 1 | 1 to 100 | ≤ 0.1 | ≤ 0.1 | 0.1 to 0.5 | Cc1ccc(-c2c(-c3ccc(N4CCN(C)CC4)cc3)[nH]c3ncc(C(=O)OC(C)C)cc23)cc1NC(=O)/C=C/CN(C)C [Example 148, (E)-isoproyl 3-(3-(4-(dimethylamino)but-2-enamido)-4-methylphenyl)-2-(4-(4-methylpiperazin-1-yl)phenyl)-1H-pyrrolo[2,3-b]pyridine-5-carboxylate 2,2,2-trifluoroacetate]
1 to 100 | 1 to 10 | 1 to 10 | 1 to 100 | 0.5 to 1 | 0.1 to 0.5 | 1 to 10 | C=CC(=O)NCc1cccc(-c2c(-c3ccc(N4CCN(C)CC4)cc3)[nH]c3ncc(C(=O)OC(C)C)cc23)c1 [Example 203, isopropyl 3-(3-(acrylamidomethyl)phenyl)-2-(4-(4-methylpiperazin-1-yl)phenyl)-1H-pyrrolo[2,3-b]pyridine-5-carboxylate 2,2,2-trifluoroacetate]
0.1 to 0.5 | ≤ 0.1 | 0.1 to 0.5 | 1 to 100 | ≤ 0.1 | ≤ 0.1 | 0.1 to 0.5 | Cc1ccc(-c2c(-c3ccc(N4CCN(C)CC4)cc3)[nH]c3nccc(Cl)c23)cc1NC(=O)/C=C/CN(C)C [Example 143, (E)-N-(5-(4-chloro-2-(4-(4-methylpiperazin-1-yl)phenyl)-1H-pyrrolo[2,3-b]pyridin-3-yl)-2-methylphenyl)-4-(dimethylamino)but-2-enamide 2,2,2-trifluoroacetate]
0.5 to 1 | 0.1 to 0.5 | 0.5 to 1 | 1 to 100 | ≤ 0.1 | ≤ 0.1 | 0.5 to 1 | C=CC(=O)Nc1cc(-c2c(-c3ccc(S(=O)(=O)N4CCN(C)CC4)cc3)[nH]c3ncc(C(=O)OC(C)C)cc23)ccc1C [Example 167, isopropyl 3-(3-acrylamido-4-methylphenyl)-2-(4-((4-methylpiperazin-1-yl)sulfonyl)phenyl)-1H-pyrrolo[2,3-b]pyridine-5-carboxylate]
